Source: BindingDB's records for doi:10.1021/acs.jmedchem.9b00966 (2019)

Legend:
[1] = Reversal of P-gp mediated multidrug resistance in human DU145-TxR cells overexpressing P-gp assessed as potentiation of paclitaxel-induced cytotoxicity by measuring paclitaxel IC50 at 5 uM after 48 hrs by MTT assay (Rvb = 2120 nM)
[2] = Reversal of P-gp mediated multidrug resistance in human DU145-TxR cells overexpressing P-gp assessed as potentiation of paclitaxel-induced cytotoxicity by measuring paclitaxel IC50 at 3 uM after 48 hrs by MTT assay (Rvb = 2120 nM)
[3] = Reversal of P-gp mediated multidrug resistance in human DU145-TxR cells overexpressing P-gp assessed as potentiation of paclitaxel-induced cytotoxicity by measuring paclitaxel IC50 at 10 uM after 48 hrs by MTT assay (Rvb = 2120 nM)
[4] = Reversal of P-gp mediated multidrug resistance in human DU145-TxR cells overexpressing P-gp assessed as potentiation of paclitaxel-induced cytotoxicity by measuring paclitaxel IC50 at 7 uM after 48 hrs by MTT assay (Rvb = 2120 nM)

Row | SMILES | IC50 [1] [nM] | IC50 [2] [nM] | IC50 [3] [nM] | IC50 [4] [nM]
1 | Cc1cc(C)c(-c2cc(NC(=O)CSCC(=O)NC(c3ccccc3)c3ccccc3)n(-c3ccccc3)n2)cc1C | 56 | 160 | 11 | 16
2 | Cc1cc(C)c(-c2cc(NC(=O)CSc3n[nH]c(C4CC4)n3)n(-c3ccccc3)n2)cc1C | 194 | 629 | 21 | 59
3 | Cc1cc(C)c(-c2cc(NC(=O)CSCC(=O)NC34CC5CC(CC(C5)C3)C4)n(-c3ccccc3)n2)cc1C | 109 | 231 | 13 | 21
4 | Cc1cc(C)c(-c2cc(NC(=O)CSCC(=O)Nc3ccc4ncsc4c3)n(-c3ccccc3)n2)cc1C | 5.7 | 172 | 0.78 | 2.9
5 | Cc1cc(C)c(-c2cc(NC(=O)CSCC(=O)c3ccc4c(c3)Cc3ccccc3-4)n(-c3ccccc3)n2)cc1C | 154 | 266 | 57 | 62
6 | Cc1cc(C)c(-c2cc(NC(=O)CSCC(=O)N3c4ccccc4CCc4ccccc43)n(-c3ccccc3)n2)cc1C | 52 | 164 | 4 | 6
7 | Cc1cc(C)c(-c2cc(NC(=O)CSCC(=O)Nc3ccc4ccccc4c3)n(-c3ccccc3)n2)cc1C | 46 | 153 | 2 | 7
8 | Cc1cc(C)c(-c2cc(NC(=O)CSc3cccc(NC(=O)c4cncc(Br)c4)c3)n(-c3ccccc3)n2)cc1C | 20 | 56 | 6 | 9
9 | COc1cc(NC(=O)CSCC(=O)Nc2cc(-c3cc(C)c(C)cc3C)nn2-c2ccccc2)cc(OC)c1OC | 1.9 | 185 | 0.07 | 0.64
10 | Cc1cc(C)c(-c2cc(NC(=O)CSc3nnc4c(n3)[nH]c3ccccc34)n(-c3ccccc3)n2)cc1C | 21 | 426 | 17 | 17
11 | Cc1cc(C)c(-c2cc(NC(=O)CSCC(=O)NCc3ccc(F)cc3)n(-c3ccccc3)n2)cc1C | 379 | 458 | 131 | 192
